# Experimental data taken from patent publication EP4759807A1, “PROTEOLYSIS TARGETING CHIMERA COMPOUND FOR DEGRADING IRAK4 AND USE THEREOF” (Shenzhen Zhongge Biological Technology Co., Ltd., priority 2023, dated 2025).
# Assays:
# Test in all cases: Inhibitory effect on human liver microsome CYP450 enzyme
# Format in all cases: in vitro ADME
# CYP1A2 = molecular target: T1, CYP1A2 (Homo sapiens, UniProt P05177); settings: human liver microsomes, substrate Phenacetin
# T1 construct: 0.05 mg/mL liver microsomes (BioIVT, IHG) phosphate buffer solution; tissue BioIVT IHG; host or cells: human liver microsomes
# T1 sequence (P05177 1-516): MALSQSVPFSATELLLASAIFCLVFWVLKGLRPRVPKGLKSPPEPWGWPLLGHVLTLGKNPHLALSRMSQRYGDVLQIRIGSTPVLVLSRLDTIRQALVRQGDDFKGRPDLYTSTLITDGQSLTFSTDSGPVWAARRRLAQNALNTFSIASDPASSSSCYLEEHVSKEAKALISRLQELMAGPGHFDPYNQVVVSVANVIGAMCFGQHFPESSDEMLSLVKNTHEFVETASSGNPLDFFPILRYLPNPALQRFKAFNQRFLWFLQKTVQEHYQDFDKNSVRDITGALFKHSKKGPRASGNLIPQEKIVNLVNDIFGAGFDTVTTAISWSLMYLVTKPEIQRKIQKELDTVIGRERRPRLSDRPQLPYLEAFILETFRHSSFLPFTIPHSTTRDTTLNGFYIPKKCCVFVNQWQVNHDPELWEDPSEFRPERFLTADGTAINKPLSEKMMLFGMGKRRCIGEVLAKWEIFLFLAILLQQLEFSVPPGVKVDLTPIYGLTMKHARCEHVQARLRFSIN
# Procedure: (§1) In this experiment, the compound, liver microsomes and different CYP isoform enzyme substrates were incubated in a 37°C water bath, the amount of substrate metabolites generated was measured, and the inhibitory effect of the compound of the present disclosure on CYP enzyme was evaluated based on the IC50 value.
# (§2) i. The compound was diluted with DMSO (Aladdin, catalog number: D103273-500ml) to concentrations of 0, 0.02, 0.06, 0.2, 0.6, 2 and 6 mM. The positive reference inhibitors for each CYP isoform and their concentrations are shown in Table 4 Table 4 Positive reference inhibitors for CYP isoform enzymes and their concentrations
# (§3) ii. Phosphate buffer (sigma: V900050-500G) was used to formulate the substrate solution for each CYP isoform enzyme. Table 5 The substrate and the concentration thereof for CYP isoform enzyme
# (§4) iii. Sample incubation. 1 µL of each concentration of the compound and positive reference inhibitor for CYP isoform enzyme were taken and placed into a 96-deep well plate (A-gen: P-1.0-RD-96-S), and 169 µL of 0.05 mg/mL liver microsomes (BioIVT, IHG) phosphate buffer solution (using 0.2 mg/mL liver microsomes for CYP2C19) was added. After uniform mixing, the plate was placed in a 37°C water bath (Shanghai Jinghong Experimental Equipment Co., Ltd., DK-500) with shaking for pre-incubation for 15 min. 10 µL of substrate (adding 1 µL of substrate for CYP3A4-Testosterone) and 20 µL of 10 mM NADPH phosphate buffer solution (MCE, HYF003/CS-4998) were added. After uniform mixing, the plate was incubated in a water bath with shaking for the following time: CYP1A2: 20 min, CYP2C9: 10 min, CYP2C19: 10 min, CYP2D6: 10 min, CYP3A4-Testosterone: 10 min, CYP3A4-Midazolam: 5 min. 400 µL of glacial acetonitrile/methanol (v/v, 1:1) containing an internal standard (500 nM tolbutamide, 5 nM terfenadine) was added to terminate the reaction. After centrifugation at 4000 rpm at 4°C for 40 min, the supernatant was taken and diluted with pure water according to the response of the metabolite of the substrate, and then UPLC-MS/MS (Sciex, Q-Trap 4500) was used for detection to obtain the peak area. The C18 chromatographic column was Kinetex 2.6u C18 100A (50 mm*3 mm).
# (§5) The inhibitory effect of the compound on each P450 enzyme in human liver microsomes was calculated as the percentage of reduced metabolite formation compared with the non-inhibitory control (i.e. blank DMSO). The IC50 value of the compound for each P450 enzyme in human liver microsomes was calculated with the logarithm of the remaining activity and the inhibitor concentration using Graphpad Prism software. The calculation equation was as follows: Peak area ratio = compound peak area / internal standard peak area [formula] [formula]
# (§6) In Graphpad Prism software, the IC50 value was calculated using the standard four-parameter curve fitting algorithm.
# CYP2C19 = molecular target: T2, CYP2C19 (Homo sapiens, UniProt P33261); settings: human liver microsomes, substrate Mephenytoin
# T2 construct: (using 0.2 mg/mL liver microsomes for CYP2C19); tissue BioIVT IHG; host or cells: human liver microsomes
# T2 sequence (P33261 whole entry): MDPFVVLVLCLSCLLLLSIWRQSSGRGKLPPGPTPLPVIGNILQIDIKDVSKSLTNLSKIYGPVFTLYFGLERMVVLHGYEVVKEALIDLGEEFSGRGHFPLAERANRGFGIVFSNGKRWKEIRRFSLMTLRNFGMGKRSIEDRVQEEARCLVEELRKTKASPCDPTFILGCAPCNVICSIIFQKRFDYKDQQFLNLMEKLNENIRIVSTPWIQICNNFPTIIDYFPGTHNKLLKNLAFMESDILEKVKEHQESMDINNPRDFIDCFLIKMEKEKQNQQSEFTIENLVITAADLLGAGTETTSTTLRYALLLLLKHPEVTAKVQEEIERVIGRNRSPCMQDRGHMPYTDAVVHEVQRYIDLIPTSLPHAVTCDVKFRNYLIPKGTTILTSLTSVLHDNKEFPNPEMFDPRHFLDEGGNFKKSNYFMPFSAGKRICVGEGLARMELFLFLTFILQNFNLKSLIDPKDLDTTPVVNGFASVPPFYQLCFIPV
# Procedure: as §1, §2, §3, §4, §5, §6
# CYP2D6 = molecular target: T3, CYP2D6 (Homo sapiens, UniProt P10635); settings: human liver microsomes, substrate Dextromethorphan
# T3 construct: 0.05 mg/mL liver microsomes (BioIVT, IHG) phosphate buffer solution; tissue BioIVT IHG; host or cells: human liver microsomes
# T3 sequence (P10635 whole entry): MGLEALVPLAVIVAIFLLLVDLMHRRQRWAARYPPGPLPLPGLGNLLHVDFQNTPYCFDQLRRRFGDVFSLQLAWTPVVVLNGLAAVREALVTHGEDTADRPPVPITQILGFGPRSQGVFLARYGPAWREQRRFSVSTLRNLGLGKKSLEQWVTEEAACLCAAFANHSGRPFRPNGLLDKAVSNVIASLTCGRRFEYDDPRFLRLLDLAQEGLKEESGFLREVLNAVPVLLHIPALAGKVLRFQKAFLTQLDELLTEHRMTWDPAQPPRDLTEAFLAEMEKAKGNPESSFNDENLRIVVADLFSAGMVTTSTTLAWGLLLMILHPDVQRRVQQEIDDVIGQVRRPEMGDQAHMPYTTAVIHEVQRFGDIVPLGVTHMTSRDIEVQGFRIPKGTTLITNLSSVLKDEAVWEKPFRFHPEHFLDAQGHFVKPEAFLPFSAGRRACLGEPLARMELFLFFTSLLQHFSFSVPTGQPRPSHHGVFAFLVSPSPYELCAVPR
# Procedure: as §1, §2, §3, §4, §5, §6
smiles,measurement,setting,value
Cn1c(=O)n(C2CCC(=O)NC2=O)c2cccc(N3CCC(N4CCN(C[C@H]5CC[C@H](n6cc(-n7cc(-c8cnn9ccc(N%10CCC[C@H](O)C%10)nc89)nn7)c(C(F)F)n6)CC5)CC4)CC3)c21 (stereo partly drawn) [Example 146],IC50,CYP1A2,> 30 µM
same,IC50,CYP2C19,18.4 µM
same,IC50,CYP2D6,> 30 µM
